Laboratory results taken from patent publication US20230085307A1, “PYRIDAZINONE COMPOUND AND HERBICIDE” (NISSAN CHEMICAL CORPORATION, priority 2019, published 2023).

Tests used:
blackgrass [1] = assay: Test Example 5: herbicidal effect by foliage application, plastic box (Table 20, symbol J); format: in vivo, blackgrass (Alopecurus myosuroides); conditions: foliage application, 320 g/ha, three weeks after application
In short: (§1)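 Plants were sown into sterilized diluvial soil under about 1.5 cm cover and kept in a greenhouse at 25° C. to 30° C. Fourteen days on, foliage received an even spray of the diluted emulsion. Herbicidal or crop effect was judged three weeks afterwards.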

barnyard grass [2] = assay: Test Example 5: herbicidal effect by foliage application, plastic box (Table 20, symbol H); format: in vivo, barnyard grass (Echinochloa crus-galli); conditions: foliage application, 320 g/ha, three weeks after application
In short: as §1

Italian ryegrass [3] = assay: Test Example 4: herbicidal effect by soil treatment (Table 19, symbol K); format: in vivo, Italian ryegrass (Lolium multiflorum); conditions: amount of applied herbicide 320 g/ha
In short: (§2)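 Pre-emergence style soil spray: seeds under ~1.5 cm sterilized diluvial soil received a uniform coat of emulsion diluted to the predetermined herbicide amount. Greenhouse 25–30° C; readout at week three on previously defined criteria.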

persian speedwell [4] = assay: Test Example 5: herbicidal effect by foliage application, plastic box (Table 20, symbol R); format: in vivo, Persian speedwell (Veronica persica); conditions: foliage application, 320 g/ha, three weeks after application
In short: as §1

velvetleaf [5] = assay: Test Example 4: herbicidal effect by soil treatment (Table 19, symbol M); format: in vivo, velvetleaf (Abutilon theophrasti); conditions: amount of applied herbicide 320 g/ha
In short: as §2

persian speedwell [6] = assay: Test Example 4: herbicidal effect by soil treatment (Table 19, symbol R); format: in vivo, Persian speedwell (Veronica persica); conditions: amount of applied herbicide 320 g/ha
In short: as §2

redroot pigweed [7] = assay: Test Example 4: herbicidal effect by soil treatment (Table 19, symbol N); format: in vivo, redroot pigweed (Amaranthus retroflexus); conditions: amount of applied herbicide 320 g/ha
In short: as §2

lambsquarters [8] = assay: Test Example 5: herbicidal effect by foliage application, plastic box (Table 20, symbol O); format: in vivo, lambsquarters (Chenopodium album); conditions: foliage application, 320 g/ha, three weeks after application
In short: as §1

green foxtail [9] = assay: Test Example 5: herbicidal effect by foliage application, plastic box (Table 20, symbol G); format: in vivo, green foxtail (Setaria viridis); conditions: foliage application, 320 g/ha, three weeks after application
In short: as §1

southern crabgrass [10] = assay: Test Example 5: herbicidal effect by foliage application, plastic box (Table 20, symbol F); format: in vivo, southern crabgrass (Digitaria ciliaris); conditions: foliage application, 320 g/ha, three weeks after application
In short: as §1

redroot pigweed [11] = assay: Test Example 5: herbicidal effect by foliage application, plastic box (Table 20, symbol N); format: in vivo, redroot pigweed (Amaranthus retroflexus); conditions: foliage application, 320 g/ha, three weeks after application
In short: as §1

lambsquarters [12] = assay: Test Example 4: herbicidal effect by soil treatment (Table 19, symbol O); format: in vivo, lambsquarters (Chenopodium album); conditions: amount of applied herbicide 320 g/ha
In short: as §2

green foxtail [13] = assay: Test Example 4: herbicidal effect by soil treatment (Table 19, symbol G); format: in vivo, green foxtail (Setaria viridis); conditions: amount of applied herbicide 320 g/ha
In short: as §2

barnyard grass [14] = assay: Test Example 3: herbicidal effect by foliage application, Wagner pot (Table 18, symbol H); format: in vivo, barnyard grass (Echinochloa crus-galli); conditions: 320 g/ha
In short: (§3)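 Plants were sown in alluvial soil held under 0.1–0.5 cm standing water and grown 14 days in a greenhouse at 25–30 °C. An emulsifiable formulation, water-diluted to the set dose, was then sprayed onto the foliage, and effects were scored three weeks later using previously defined criteria.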

southern crabgrass [15] = assay: Test Example 4: herbicidal effect by soil treatment (Table 19, symbol F); format: in vivo, southern crabgrass (Digitaria ciliaris); conditions: amount of applied herbicide 320 g/ha
In short: as §2

rice flat sedge = assay: Test Example 3: herbicidal effect by foliage application, Wagner pot (Table 18, symbol E); format: in vivo, rice flat sedge (Cyperus iria); conditions: 320 g/ha
In short: as §3

windgrass [16] = assay: Test Example 4: herbicidal effect by soil treatment (Table 19, symbol L); format: in vivo, windgrass (Apera spica-venti); conditions: amount of applied herbicide 320 g/ha
In short: as §2

Japanese bulrush = assay: Test Example 1: herbicidal activity, application before weed generation under submerged conditions (Table 16, symbol B); format: in vivo, Japanese bulrush (Schoenoplectus juncoides); conditions: 320 g/ha applied herbicide
In short: (§4)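 Submerged Wagner pots (alluvial soil, 4 cm water) sown with weed seeds and planted with 2.5-leaf rice seedlings; emulsifiable concentrate diluted in water applied to water surface on sowing day. Held in greenhouse at 25-30 °C; injury scored 0-5 by herbicidal rate after three weeks.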

blackgrass [17] = assay: Test Example 4: herbicidal effect by soil treatment (Table 19, symbol J); format: in vivo, blackgrass (Alopecurus myosuroides); conditions: amount of applied herbicide 320 g/ha
In short: as §2

late watergrass = assay: Test Example 1: herbicidal activity, application before weed generation under submerged conditions (Table 16, symbol A); format: in vivo, late watergrass (Echinochloa oryzicola); conditions: 320 g/ha applied herbicide
In short: as §4

oval-leafed pondweed = assay: Test Example 1: herbicidal activity, application before weed generation under submerged conditions (Table 16, symbol C); format: in vivo, oval-leafed pondweed (Monochoria vaginalis); conditions: 320 g/ha applied herbicide
In short: as §4

barnyard grass [18] = assay: Test Example 4: herbicidal effect by soil treatment (Table 19, symbol H); format: in vivo, barnyard grass (Echinochloa crus-galli); conditions: amount of applied herbicide 320 g/ha
In short: as §2

windgrass [19] = assay: Test Example 5: herbicidal effect by foliage application, plastic box (Table 20, symbol L); format: in vivo, windgrass (Apera spica-venti); conditions: foliage application, 320 g/ha, three weeks after application
In short: as §1

wild oat [20] = assay: Test Example 5: herbicidal effect by foliage application, plastic box (Table 20, symbol I); format: in vivo, wild oat (Avena fatua); conditions: foliage application, 320 g/ha, three weeks after application
In short: as §1

chickweed [21] = assay: Test Example 5: herbicidal effect by foliage application, plastic box (Table 20, symbol P); format: in vivo, common chickweed (Stellaria media); conditions: foliage application, 320 g/ha, three weeks after application
In short: as §1

Italian ryegrass [22] = assay: Test Example 5: herbicidal effect by foliage application, plastic box (Table 20, symbol K); format: in vivo, Italian ryegrass (Lolium multiflorum); conditions: foliage application, 320 g/ha, three weeks after application
In short: as §1

Chinese sprangletop = assay: Test Example 3: herbicidal effect by foliage application, Wagner pot (Table 18, symbol D); format: in vivo, chinese sprangletop (Leptochloa chinensis); conditions: 320 g/ha
In short: as §3

wild oat [23] = assay: Test Example 4: herbicidal effect by soil treatment (Table 19, symbol I); format: in vivo, wild oat (Avena fatua); conditions: amount of applied herbicide 320 g/ha
In short: as §2

chickweed [24] = assay: Test Example 4: herbicidal effect by soil treatment (Table 19, symbol P); format: in vivo, common chickweed (Stellaria media); conditions: amount of applied herbicide 320 g/ha
In short: as §2

velvetleaf [25] = assay: Test Example 5: herbicidal effect by foliage application, plastic box (Table 20, symbol M); format: in vivo, velvetleaf (Abutilon theophrasti); conditions: foliage application, 320 g/ha, three weeks after application
In short: as §1

SMILES: CCCC(=O)Oc1c(C)nn(C)c(=O)c1-c1c(-c2ccc(F)c(F)c2)sc2ccccc12 [1-047]
- herbicidal effect grade, J: blackgrass (blackgrass [1]): 0 (Herbicidal rate of 5% or less (almost no effect))
- herbicidal effect grade, H: barnyard grass (barnyard grass [2]): 0 (Herbicidal rate of 5% or less (almost no effect))
- herbicidal effect rating, K: Italian ryegrass (Italian ryegrass [3]): 0 (Herbicidal rate of 5% or less (almost no effect))
- herbicidal effect grade, R: persian speedwell (persian speedwell [4]): 3 (Herbicidal rate of 40% or more and less than 70%)
- herbicidal effect rating, M: velvetleaf (velvetleaf [5]): 0 (Herbicidal rate of 5% or less (almost no effect))
- herbicidal effect rating, R: persian speedwell (persian speedwell [6]): 5 (Herbicidal rate of 90% or more (almost completely withered))
- herbicidal effect rating, N: redroot pigweed (redroot pigweed [7]): 0 (Herbicidal rate of 5% or less (almost no effect))
- herbicidal effect grade, O: lambsquarters (lambsquarters [8]): 3 (Herbicidal rate of 40% or more and less than 70%)
- herbicidal effect grade, G: green foxtail (green foxtail [9]): 0 (Herbicidal rate of 5% or less (almost no effect))
- herbicidal effect grade, F: southern crabgrass (southern crabgrass [10]): 0 (Herbicidal rate of 5% or less (almost no effect))
- herbicidal effect grade, N: redroot pigweed (redroot pigweed [11]): 3 (Herbicidal rate of 40% or more and less than 70%)
- herbicidal effect rating, O: lambsquarters (lambsquarters [12]): 3 (Herbicidal rate of 40% or more and less than 70%)
- herbicidal effect rating, G: green foxtail (green foxtail [13]): 2 (Herbicidal rate of 20% or more and less than 40%)
- herbicidal effect on H (barnyard grass), rating 0-5 (barnyard grass [14]): 2 (Herbicidal rate of 20% or more and less than 40%)
- herbicidal effect rating, F: southern crabgrass (southern crabgrass [15]): 0 (Herbicidal rate of 5% or less (almost no effect))
- herbicidal effect on E (rice flat sedge), rating 0-5 (rice flat sedge): 5 (Herbicidal rate of 90% or more (almost completely withered))
- herbicidal effect rating, L: windgrass (windgrass [16]): 0 (Herbicidal rate of 5% or less (almost no effect))
- Herbicidal effect on B: Japanese bulrush (grade 0-5) (Japanese bulrush): 0 (Herbicidal rate of 5% or less (almost no effect))
- herbicidal effect rating, J: blackgrass (blackgrass [17]): 0 (Herbicidal rate of 5% or less (almost no effect))
- Herbicidal effect on A: late watergrass (grade 0-5) (late watergrass): 3 (Herbicidal rate of 40% or more and less than 70%)
- Herbicidal effect on C: oval-leafed pondweed (grade 0-5) (oval-leafed pondweed): 0 (Herbicidal rate of 5% or less (almost no effect))
- herbicidal effect rating, H: barnyard grass (barnyard grass [18]): 3 (Herbicidal rate of 40% or more and less than 70%)
- herbicidal effect grade, L: windgrass (windgrass [19]): 0 (Herbicidal rate of 5% or less (almost no effect))
- herbicidal effect grade, I: wild oat (wild oat [20]): 0 (Herbicidal rate of 5% or less (almost no effect))
- herbicidal effect grade, P: chickweed (chickweed [21]): 5 (Herbicidal rate of 90% or more (almost completely withered))
- herbicidal effect grade, K: Italian ryegrass (Italian ryegrass [22]): 0 (Herbicidal rate of 5% or less (almost no effect))
- herbicidal effect on D (Chinese sprangletop), rating 0-5 (Chinese sprangletop): 0 (Herbicidal rate of 5% or less (almost no effect))
- herbicidal effect rating, I: wild oat (wild oat [23]): 0 (Herbicidal rate of 5% or less (almost no effect))
- herbicidal effect rating, P: chickweed (chickweed [24]): 5 (Herbicidal rate of 90% or more (almost completely withered))
- herbicidal effect grade, M: velvetleaf (velvetleaf [25]): 5 (Herbicidal rate of 90% or more (almost completely withered))
